Structures can show the parent of a compound that is named as a salt. Residues, ends and D or L forms follow the SMILES beside them.
Columns and labels:
rHuPH20 = target: T1, rHuPH20 (Homo sapiens, UniProt P38567); test: Determination of hyaluronidase activity of rHuPH20, turbidimetric assay (Example 2, variant not specified); format: biochemical; conditions: for Effect on rHuPH20 enzymatic activity: stabilizer screening in rHuPH20/insulin formulation, semi-quantitative in comparison with NaCl, samples incubated at 30° C. for about one week
T1 construct: made in house; host or cells: CHO cells (DG44 CHO, HZ24 plasmid, clone 2B2)
T1 sequence (P38567 36-482): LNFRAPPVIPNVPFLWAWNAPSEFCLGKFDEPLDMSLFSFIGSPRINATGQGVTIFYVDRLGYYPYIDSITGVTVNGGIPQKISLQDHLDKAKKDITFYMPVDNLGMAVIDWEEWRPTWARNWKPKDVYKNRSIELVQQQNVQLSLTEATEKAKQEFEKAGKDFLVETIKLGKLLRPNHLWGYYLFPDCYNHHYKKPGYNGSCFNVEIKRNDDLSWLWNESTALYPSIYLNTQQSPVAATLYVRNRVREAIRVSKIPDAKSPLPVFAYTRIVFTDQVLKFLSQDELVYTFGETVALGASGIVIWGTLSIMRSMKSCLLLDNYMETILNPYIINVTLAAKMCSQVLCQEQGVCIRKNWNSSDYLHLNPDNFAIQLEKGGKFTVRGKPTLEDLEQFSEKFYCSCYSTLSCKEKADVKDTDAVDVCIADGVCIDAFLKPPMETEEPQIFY

[1] = Non-denaturing SEC: percent main peak / aggregates of insulin and rHuPH20; format: physicochemical
Protocol: Reference samples were stored in HPLC vials at 10° C. prior to use.
Samples were stored in HPLC vials at 10° C. prior to use, for up to 3 days.
0.5× Phosphate Buffered Saline (PBS) solution was prepared by diluting 10×PBS with HPLC grade water.
Insulin percent purity was expressed as percentage of the insulin main peak versus the total insulin peaks. The target specification is less than 2% high molecular weight protein, i.e., insulin aggregates.
SEC was performed using the following conditions: 1× Phosphate Buffered Saline (PBS), a Toso BioScience G2000 SWXL column, and a flow rate set at 1 mL/min. Data were collected as described above and means were reported and entered into the design table following the sample sequence provided by the DOE software.

[2] = RP-HPLC: insulin apparent solubility / percent recovery; conditions: stabilizer screening in rHuPH20/insulin formulation, semi-quantitative in comparison with NaCl; RP-HPLC, samples stored at 5° C.
Protocol: Apparent solubility was measured as the percent insulin recovery as compared to the initial formulations/conditions.
Samples were prepared by withdrawing 100 μL from each vial at every time point and centrifuging prior to loading. Samples were stored in an autosampler at 4° C. prior to use, and were considered stable for 3 days after preparation. All samples were tested in duplicate.
For insulin, 20 μL was injected for each HPLC run.
To determine the apparent solubility, the peak area of insulin/insulin analog main peak and desamido peak were integrated and combined together to calculate the percentage relative to the standards. […] The data were processed using Design-Expert® 7.0 (StatEase) and the “historical data” feature. Insulin percent purity was expressed as the percent of main insulin versus all insulin species.

[3] = t = 0, 100 μg/mL rHuPH20, pH 7.3, 140 mM NaCl, 0.01% polysorbate 80, preservative levels of Table 21, in U/mL
[4] = 48 hours, 4° C., preservative levels of Table 22, in U/mL
[5] = 48 hours, 35° C., preservative levels of Table 22, in U/mL
[6] = 35° C., Table 22 concentrations

| SMILES | rHuPH20 activity (rHuPH20; 24 hours, 25° C., in U/mL) | rHuPH20 activity (rHuPH20; 5 days, 25° C., in U/mL) | rHuPH20 activity (rHuPH20; [3]) | % Main rHuPH20 peak by non-denaturing SEC ([1]; 4° C., 1 day) | % Main rHuPH20 peak by non-denaturing SEC ([1]; 35° C., 1 day) | Effect on rHuPH20 enzymatic activity (rHuPH20) | other results |
| --- | --- | --- | --- | --- | --- | --- | --- |
| OCCCCCl [4-Chloro-1-butanol] | 3500 | 1440 | 11,350 | 97.89% | <LOD |  | rHuPH20 activity (rHuPH20; 6 days, 35° C.): <LOQ |
| C[N+](C)(C)CC(=O)O [Betaine] |  |  |  |  |  | No effect | Effect on insulin solubility [2]: No effect |
| N=C(NCCCCCCNC(=N)NC(=N)Nc1ccc(Cl)cc1)NC(=N)Nc1ccc(Cl)cc1.O=C(O)[C@H](O)[C@@H](O)[C@H](O)[C@H](O)CO.O=C(O)[C@H](O)[C@@H](O)[C@H](O)[C@H](O)CO [Chlorhexidine digluconate] | 9520 | 12310 | 9,590 | 98.35% | 98.23% |  | rHuPH20 activity (rHuPH20; [4]): 12,090; rHuPH20 activity (rHuPH20; [5]): 13,110; rHuPH20 activity (rHuPH20; 6 days, 35° C., in U/mL): 12270; % Main rHuPH20 peak by non-denaturing SEC ([1]; 4° C., Table 22 concentrations): 99.77%; % Main rHuPH20 peak by non-denaturing SEC [1, 6]: 98.30% |
| [H]/N=C(\N/C(=N/[H])NCCCCCCNC(=N)NC(=N)Nc1ccc(Cl)cc1)Nc1ccc(Cl)cc1 [Chlorhexidine dihydrochloride] | 8130 | 8750 | 7,720 | 98.76% | 98.12% |  | rHuPH20 activity (rHuPH20; 6 days, 35° C., in U/mL): 11890 |
| NC(=O)CC[C@H](N)C(=O)O [Glutamine] |  |  |  |  |  | No effect | Effect on insulin solubility [2]: No effect |
| NCC(=O)NCC(=O)O [Gly-Gly] (H-Gly-Gly-OH) |  |  |  |  |  | No effect |  |
| O[C@H]1[C@H](O)[C@@H](O)[C@H](O)[C@@H](O)[C@H]1O [Inositol] |  |  |  |  |  | No effect |  |
| N[C@@H](Cc1ccccc1)C(=O)O [L-Phenylalanine] | 12100 | 11460 | 13,420 | 98.27% | 98.86% |  | rHuPH20 activity (rHuPH20; [4]): 12,540; rHuPH20 activity (rHuPH20; [5]): 13,130; rHuPH20 activity (rHuPH20; 6 days, 35° C., in U/mL): 10660; % Main rHuPH20 peak by non-denaturing SEC ([1]; 4° C., Table 22 concentrations): 100.00%; % Main rHuPH20 peak by non-denaturing SEC [1, 6]: 99.80% |
| NCCCC[C@H](N)C(=O)O [Lysine] |  |  |  |  |  | No effect | Effect on insulin solubility [2]: No effect |
| OC[C@@H](O)[C@@H](O)[C@H](O)[C@H](O)CO [Mannitol] |  |  |  |  |  | No effect |  |
| O=C(O)CCCc1ccccc1 [Phenyl butyric acid] |  |  |  |  |  | No effect |  |
| O=C([O-])c1ccccc1.[Na+] [Sodium Benzoate] |  |  |  |  |  | No effect |  |

From US20130011378A1, “Stable formulations of a hyaluronan-degrading enzyme” (priority 2011, published 2013)
